Measurements as given in patent US20220280516A1, “PEGYLATED HEPARIN NANOMICELLE LOADED WITH CARBOXYLIC ACID ANTI-TUMOR DRUG AND PREPARATION METHOD THEREOF” (priority 2020, published 2022).

Tested on: 5T33 multiple myeloma cells
Experiment: In vivo experiment of multiple myeloma
Conditions: 5T33 myeloma mice, subcutaneous
Experimental: Thirty 6-week-old mice are divided into three groups, which are administrated with free bendamustine (Group I), PEG-Py-HP-bendamustine (Group II) and PEG-Mal-HP-bendamustine (Group III) respectively. Male and female animals in each group are halved, and there is no statistically significant difference in body weight among animals in each group. The dosage of free bendamustine group is 0.1 ml/kg body weight/day, and that of PEG-Py-HP-bendamustine group and PEG-Mal-HP-bendamustine group is 20 mg/kg (body weight/day).
One week after injection of 1,000,000 5T33 multiple myeloma cells into the tail veins of mice, drugs are administered subcutaneously according to the above scheme, for three times a week. During the administration period, the animals are weighed every day, and the dosage on that day is determined according to the weight, and the animals are continuously administered until the death of the mice. The venous blood of mice is collected and stored every week, and the time of death of mice is recorded.

SMILES: Cn1c(CCCC(=O)O)nc2cc(N(CCCl)CCCl)ccc21 [free bendamustine, Bendamustine]
- Average survival days of mice after drug injection (three times a week until death): 36 days
- Average tumor load in serum of mice after drug injection (1 day): 132.2 µg/mL
- Average tumor load in serum of mice after drug injection (8 days): 201.5 µg/mL
- Average tumor load in serum of mice after drug injection (15 days): 321.2 µg/mL
- Average tumor load in serum of mice after drug injection (22 days): 608.4 µg/mL
- Average tumor load in serum of mice after drug injection (29 days): 873.3 µg/mL
- Average tumor load in serum of mice after drug injection (36 days): 946.8 µg/mL
